Molecular target: T1, RORc ligand binding domain (Homo sapiens, UniProt P51449)
T1 sequence (P51449 269-508 limits assumed): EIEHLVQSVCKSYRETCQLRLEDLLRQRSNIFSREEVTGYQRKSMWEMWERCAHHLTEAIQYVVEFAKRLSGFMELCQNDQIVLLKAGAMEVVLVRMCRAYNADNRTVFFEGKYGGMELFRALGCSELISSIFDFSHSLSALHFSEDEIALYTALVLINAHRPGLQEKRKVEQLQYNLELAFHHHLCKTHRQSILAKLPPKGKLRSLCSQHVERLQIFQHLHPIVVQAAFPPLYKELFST
Assay: In Vitro RORc Ligand Binding Assay
Conditions: RORc IC50, radioligand 25-[3H]hydroxycholesterol 6 nM; 0.6 ug/mL RORc receptor; 3 h at 25° C.

Row | SMILES | IC50 [nM]
1 | C[C@H](O)c1nnc(-c2ncc(F)c([C@@]34CC[C@@H](c5cc(-c6c(F)cccc6F)nnc53)C4(C)C)n2)[nH]1 [Example 257] | 22.6
2 | CC(C)(O)c1cc(-c2cncc([C@@]34CC[C@@H](c5cc(-c6c(F)cccc6F)nnc53)C4(C)C)n2)no1 [Example 259, 2-(3-(6-((5R,8S)-3-(2,6-difluorophenyl)-9,9-dimethyl-5,6,7,8-tetrahydro-5,8-methanocinnolin-8-yl)pyrazin-2-yl)isoxazol-5-yl)propan-2-ol] | 8.7
3 | CC(C)(O)c1nnc(-c2cncc([C@@]34CC[C@@H](c5cc(-c6c(F)cccc6F)nnc53)C4(C)C)n2)o1 [Example 260, 2-(5-(6-((5R,8S)-3-(2,6-difluorophenyl)-9,9-dimethyl-5,6,7,8-tetrahydro-5,8-methanocinnolin-8-yl)pyrazin-2-yl)-1,3,4-oxadiazol-2-yl)propan-2-ol] | 12.4
4 | CC1(C)[C@H]2CC[C@]1(c1ccnc(-n3cnc(C(N)=O)c3)n1)c1nnc(-c3c(F)cccc3F)cc12 [Example 261] | 11.7
5 | CC(C)(O)c1nnc(-c2nccc([C@@]34CC[C@@H](c5cc(-c6c(F)cccc6F)nnc53)C4(C)C)n2)[nH]1 [Example 262] | 37.4
6 | C[C@H](O)c1nnc(-c2nccc([C@@]34CC[C@@H](c5cc(-c6c(F)cccc6F)nnc53)C4(C)C)n2)[nH]1 [Example 263] | 20.8
7 | Cc1ncn(-c2ncc(F)c([C@@]34CC[C@@H](c5cc(-c6c(F)cccc6F)nnc53)C4(C)C)n2)n1 [Example 267] | 17.3
8 | CC(C)(O)c1cc(-c2cncc([C@@]34CC[C@@H](c5cc(-c6c(F)cccc6F)nnc53)C4(C)C)n2)on1 [Example 269, 2-(5-(6-((5R,8S)-3-(2,6-difluorophenyl)-9,9-dimethyl-5,6,7,8-tetrahydro-5,8-methanocinnolin-8-yl)pyrazin-2-yl)isoxazol-3-yl)propan-2-ol] | 3
9 | Cc1ncn(-c2cccc([C@@]34CC[C@@H](c5cc(-c6c(F)cccc6F)nnc53)C4(C)C)n2)n1 [Example 270] | 1.9
10 | CC1(C)[C@H]2CC[C@]1(c1ccnc(-n3cnc(C(F)(F)F)n3)n1)c1nnc(-c3c(F)cccc3F)cc12 [Example 271] | 4.4
11 | CC(C)c1ncn(-c2nccc([C@@]34CC[C@@H](c5cc(-c6c(F)cccc6F)nnc53)C4(C)C)n2)n1 [Example 273] | 5.2
12 | CC1(C)[C@H]2CC[C@]1(c1ccnc(-n3cnc(C4CC4)n3)n1)c1nnc(-c3c(F)cccc3F)cc12 [Example 274] | 2
13 | CNC(=O)c1nc(-c2ncc(F)c([C@@]34CC[C@@H](c5cc(-c6c(F)cccc6F)nnc53)C4(C)C)n2)no1 [Example 277] | 12.4

Further lines, results first:

Row | IC50 [nM] | SMILES
14 | 21.6 | C[C@@H](O)c1nnc(-c2ncc(F)c([C@@]34CC[C@@H](c5cc(-c6c(F)cccc6F)nnc53)C4(C)C)n2)[nH]1 [Example 258]
15 | 32.3 | C[C@@H](O)c1nnc(-c2nccc([C@@]34CC[C@@H](c5cc(-c6c(F)cccc6F)nnc53)C4(C)C)n2)[nH]1 [Example 264]
16 | 4.3 | Cc1cc(-c2ccnc([C@@]34CC[C@@H](c5cc(-c6c(F)cccc6F)nnc53)C4(C)C)n2)no1 [Example 266, 3-(2-((5R,8R)-3-(2,6-difluorophenyl)-9,9-dimethyl-5,6,7,8-tetrahydro-5,8-methanocinnolin-8-yl)pyrimidin-4-yl)-5-methylisoxazole]
17 | 3.3 | CC1(C)[C@H]2CC[C@]1(c1nc(N)ncc1F)c1nnc(-c3c(F)cccc3F)cc12 [Example 268]
18 | 10.3 | Cc1nc(-c2ccnc([C@@]34CC[C@@H](c5cc(-c6c(F)cccc6F)nnc53)C4(C)C)n2)co1 [Example 275, 4-(2-((5R,8R)-3-(2,6-difluorophenyl)-9,9-dimethyl-5,6,7,8-tetrahydro-5,8-methanocinnolin-8-yl)pyrimidin-4-yl)-2-methyloxazole]
19 | 15.5 | CC(C)(O)c1ncn(-c2nccc([C@@]34CC[C@@H](c5cc(-c6c(F)cccc6F)nnc53)C4(C)C)n2)n1 [Example 276]
